Here are results for 8 cell lines from the supplement of paper PMC10307832.

Common to all, as to assay: relative viability (nuclei count vs DMSO), 5 days (fraction); higher = more cells survive
Compound in experiment [1]: C1CNCCC1C2=CC(=NN2)C3=CC=NC=C3 + Cc1cc(Nc2cc(N3CCN(C)CC3)nc(Sc3ccc(NC(=O)C4CC4)cc3)n2)n[nH]1 [Tozasertib] (partner 0.1 µM)
An outline of the steps:
(§1)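 Lung cancer cell lines were seeded in 1536-well plates and dosed by pin tool the next day, with either a single drug or a fixed anchor-drug dose combined with five library-drug doses (not always all listed) spaced in √10 steps. Five days later, one step fixed the cells and stained their nuclei (final 0.05% Triton X-100, 1% formaldehyde, 1 ug/ml Hoechst), and nuclei were counted on 4× images. Relative viability is the nuclei count in treated wells divided by the count in vehicle wells, and each value is the median of duplicate plates.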

Compound in experiment [2]: C[C@@H](N)c1ccc(C(=O)Nc2ccnc3[nH]ccc23)cc1 + Nc1nc2[nH]cc(CCc3ccc(C(=O)N[C@@H](CCC(=O)O)C(=O)O)cc3)c2c(=O)[nH]1 [Pemetrexed] (partner 0.2 µM)
An outline of the steps: as §1

Compound in the experiment “Tanzisertib + Dasatinib”: O[C@H]1CC[C@H](Nc2ncc3nc(Nc4c(F)cc(F)cc4F)n([C@H]4CCOC4)c3n2)CC1 [Tanzisertib] + Cc1nc(Nc2ncc(C(=O)Nc3c(C)cccc3Cl)s2)cc(N2CCN(CCO)CC2)n1 [Dasatinib] (partner 0.075 µM)
An outline of the steps: as §1

Compound in experiment [3]: C[C@@H](N)c1ccc(C(=O)Nc2ccnc3[nH]ccc23)cc1 + CC(=O)Nc1cccc(-n2c(=O)n(C3CC3)c(=O)c3c(Nc4ccc(I)cc4F)n(C)c(=O)c(C)c32)c1 [Trametinib] (partner 0.02 µM)
An outline of the steps: as §1

Regarding EMC-BAC-2, the relative viability in experiment [1] (first compound 0.08 µM) was found to be 0.28; in experiment [1] (first compound 0.8 µM) it was 0.311; in experiment [1] (first compound 2.53 µM) it was 0.319; in experiment [1] (first compound 8 µM), 0.263; in experiment [2] (first compound 0.04 µM), 0.401; in experiment [2] (first compound 0.1265 µM) it was 0.422. Besides, the relative viability in experiment [2] (first compound 0.4 µM) was 0.452; in experiment [2] (first compound 1.265 µM), 0.471; in experiment [2] (first compound 4 µM), 0.402; in the experiment with Tanzisertib + Dasatinib (first compound 0.08 µM), 0.315; with Tanzisertib + Dasatinib (first compound 0.253 µM) it was 0.321; with Tanzisertib + Dasatinib (first compound 0.8 µM), 0.328. Further, the relative viability came to 0.351 in the experiment with Tanzisertib + Dasatinib (first compound 2.53 µM); 0.299 with Tanzisertib + Dasatinib (first compound 8 µM); 0.958 in experiment [3] (first compound 0.04 µM); 1.04 in experiment [3] (first compound 0.1265 µM); 1.03 in experiment [3] (first compound 0.4 µM); 1.01 in experiment [3] (first compound 1.265 µM). The relative viability in experiment [3] (first compound 4 µM) is 0.969.
In the case of EPLC-272H, the relative viability in experiment [1] (first compound 0.08 µM) was 0.357; in experiment [1] (first compound 0.8 µM), 0.221; in experiment [1] (first compound 2.53 µM), 0.367; in experiment [1] (first compound 8 µM) it was 0.314; in experiment [2] (first compound 0.04 µM) it was 0.251; in experiment [2] (first compound 0.1265 µM) it was 0.339. The relative viability in experiment [2] (first compound 0.4 µM) worked out at 0.312; in experiment [2] (first compound 1.265 µM), 0.238; in experiment [2] (first compound 4 µM), 0.225; with Tanzisertib + Dasatinib (first compound 0.08 µM) it was 0.416; with Tanzisertib + Dasatinib (first compound 0.253 µM), 0.373; in the experiment with Tanzisertib + Dasatinib (first compound 0.8 µM), 0.367. Further, the relative viability was 0.359 in the experiment with Tanzisertib + Dasatinib (first compound 2.53 µM); 0.333 in the experiment with Tanzisertib + Dasatinib (first compound 8 µM); 0.299 in experiment [3] (first compound 0.04 µM); 0.283 in experiment [3] (first compound 0.1265 µM); 0.358 in experiment [3] (first compound 0.4 µM); 0.267 in experiment [3] (first compound 4 µM).
Turning to H3255, the relative viability in experiment [1] (first compound 0.08 µM) was found to be 0.709; in experiment [1] (first compound 0.8 µM) it was 0.795; in experiment [1] (first compound 2.53 µM), 0.806; in experiment [1] (first compound 8 µM) it was 0.606; in experiment [2] (first compound 0.04 µM), 0.556; in experiment [2] (first compound 0.1265 µM), 0.554. The relative viability in experiment [2] (first compound 0.4 µM) stood at 0.552; in experiment [2] (first compound 1.265 µM) it was 0.555; in experiment [2] (first compound 4 µM) it was 0.501; with Tanzisertib + Dasatinib (first compound 0.08 µM) it was 0.426; in the experiment with Tanzisertib + Dasatinib (first compound 0.253 µM), 0.499; in the experiment with Tanzisertib + Dasatinib (first compound 0.8 µM), 0.306. Also, the relative viability with Tanzisertib + Dasatinib (first compound 2.53 µM) turned out to be 0.345; in the experiment with Tanzisertib + Dasatinib (first compound 8 µM) it was 0.344; in experiment [3] (first compound 0.04 µM), 0.704; in experiment [3] (first compound 0.1265 µM), 0.694; in experiment [3] (first compound 0.4 µM), 0.748; in experiment [3] (first compound 1.265 µM), 0.757. Besides, the relative viability in experiment [3] (first compound 4 µM) was 0.583.
On to HARA, for which the relative viability was found to be 0.12 in experiment [1] (first compound 0.08 µM); 0.0979 in experiment [1] (first compound 0.8 µM); 0.11 in experiment [1] (first compound 2.53 µM); 0.0912 in experiment [1] (first compound 8 µM); 0.191 in experiment [2] (first compound 0.04 µM); 0.209 in experiment [2] (first compound 0.1265 µM). The relative viability amounted to 0.257 in experiment [2] (first compound 0.4 µM); 0.249 in experiment [2] (first compound 1.265 µM); 0.236 in experiment [2] (first compound 4 µM); 0.279 in the experiment with Tanzisertib + Dasatinib (first compound 0.08 µM); 0.246 in the experiment with Tanzisertib + Dasatinib (first compound 0.253 µM); 0.254 in the experiment with Tanzisertib + Dasatinib (first compound 0.8 µM). The relative viability in the experiment with Tanzisertib + Dasatinib (first compound 2.53 µM) worked out at 0.278; with Tanzisertib + Dasatinib (first compound 8 µM) it was 0.265; in experiment [3] (first compound 0.04 µM) it was 0.918; in experiment [3] (first compound 0.1265 µM), 1.01; in experiment [3] (first compound 0.4 µM), 0.804; in experiment [3] (first compound 1.265 µM), 0.549. In experiment [3] (first compound 4 µM), the relative viability was 0.936.
On to HCC-15, for which the relative viability was determined as 0.517 in experiment [1] (first compound 0.08 µM); 0.372 in experiment [1] (first compound 0.8 µM); 0.484 in experiment [1] (first compound 2.53 µM); 0.355 in experiment [1] (first compound 8 µM); 0.242 in experiment [2] (first compound 0.04 µM); 0.242 in experiment [2] (first compound 0.1265 µM). The relative viability was 0.209 in experiment [2] (first compound 0.4 µM); 0.212 in experiment [2] (first compound 1.265 µM); 0.233 in experiment [2] (first compound 4 µM); 0.764 with Tanzisertib + Dasatinib (first compound 0.08 µM); 0.646 with Tanzisertib + Dasatinib (first compound 0.253 µM); 0.637 with Tanzisertib + Dasatinib (first compound 0.8 µM). The relative viability in the experiment with Tanzisertib + Dasatinib (first compound 2.53 µM) turned out to be 0.642; with Tanzisertib + Dasatinib (first compound 8 µM) it was 0.591; in experiment [3] (first compound 0.04 µM), 0.456; in experiment [3] (first compound 0.1265 µM), 0.365; in experiment [3] (first compound 0.4 µM) it was 0.422; in experiment [3] (first compound 1.265 µM) it was 0.384. In addition, the relative viability in experiment [3] (first compound 4 µM) worked out at 0.362.
In the case of HCC-44, the relative viability in experiment [1] (first compound 0.08 µM) came to 0.873; in experiment [1] (first compound 0.8 µM), 1.32; in experiment [1] (first compound 2.53 µM) it was 1.1; in experiment [1] (first compound 8 µM), 0.897; in experiment [2] (first compound 0.04 µM) it was 0.594; in experiment [2] (first compound 0.1265 µM), 0.603. Further, the relative viability amounted to 0.636 in experiment [2] (first compound 0.4 µM); 0.707 in experiment [2] (first compound 1.265 µM); 0.627 in experiment [2] (first compound 4 µM); 1.08 in experiment [3] (first compound 0.04 µM); 1.11 in experiment [3] (first compound 0.1265 µM); 1.18 in experiment [3] (first compound 0.4 µM). Besides, the results for the relative viability in experiment [3] (first compound 1.265 µM) and in experiment [3] (first compound 4 µM) were 1.16 and 0.952, respectively.
Turning to HCC-78, the relative viability in experiment [1] (first compound 0.08 µM) was 0.439; in experiment [1] (first compound 0.8 µM) it was 0.325; in experiment [1] (first compound 2.53 µM) it was 0.459; in experiment [1] (first compound 8 µM), 0.392; in experiment [2] (first compound 0.04 µM) it was 0.942; in experiment [2] (first compound 0.1265 µM), 0.928. The relative viability worked out at 0.906 in experiment [2] (first compound 0.4 µM); 0.98 in experiment [2] (first compound 1.265 µM); 0.963 in experiment [2] (first compound 4 µM); 0.469 in the experiment with Tanzisertib + Dasatinib (first compound 0.08 µM); 0.54 with Tanzisertib + Dasatinib (first compound 0.253 µM); 0.3 with Tanzisertib + Dasatinib (first compound 0.8 µM). Besides, the relative viability with Tanzisertib + Dasatinib (first compound 2.53 µM) was determined as 0.325; with Tanzisertib + Dasatinib (first compound 8 µM) it was 0.255; in experiment [3] (first compound 0.04 µM) it was 0.979; in experiment [3] (first compound 0.1265 µM) it was 0.793; in experiment [3] (first compound 0.4 µM) it was 0.981; in experiment [3] (first compound 1.265 µM), 1.2. In experiment [3] (first compound 4 µM), the relative viability was determined as 0.661.
Consider HCC-366, for which the relative viability in experiment [1] (first compound 0.08 µM) worked out at 0.214; in experiment [1] (first compound 0.8 µM) it was 0.137; in experiment [1] (first compound 2.53 µM) it was 0.182; in experiment [1] (first compound 8 µM) it was 0.123; in experiment [2] (first compound 0.04 µM), 0.154; in experiment [2] (first compound 0.1265 µM), 0.148. Further, the relative viability came to 0.163 in experiment [2] (first compound 0.4 µM); 0.241 in experiment [2] (first compound 1.265 µM); 0.184 in experiment [2] (first compound 4 µM); 0.81 in the experiment with Tanzisertib + Dasatinib (first compound 0.08 µM); 0.606 in the experiment with Tanzisertib + Dasatinib (first compound 0.253 µM); 0.629 in the experiment with Tanzisertib + Dasatinib (first compound 0.8 µM). Moreover, the relative viability with Tanzisertib + Dasatinib (first compound 2.53 µM) stood at 0.62; with Tanzisertib + Dasatinib (first compound 8 µM), 0.542; in experiment [3] (first compound 0.04 µM), 0.345; in experiment [3] (first compound 0.1265 µM), 0.332; in experiment [3] (first compound 0.4 µM), 0.388; in experiment [3] (first compound 1.265 µM), 0.399. Further, the relative viability in experiment [3] (first compound 4 µM) amounted to 0.375.
